Assay results from article PMC10447463, “Data-mining unveils structure–property–activity correlation of viral infectivity enhancing self-assembling peptides” (Nature Communications, 2023).
Where two headings read alike, the source gives them in different places.

Key:
[1] = Zeta-potential measurement; format: physicochemical; conditions: for Zeta pot. / mV: 1 mg/mL in PBS pH 7.4 from 10 mg/mL DMSO stock, 1 d RT, 60 µL diluted in 600 µL 1 mM KCl, Zetasizer Nano ZS, Smoluchowski, mean of triplicate
In short: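 Samples: 1 mg/mL in PBS pH 7.4 (from DMSO), 1 d at RT, then diluted in 1 mM KCl immediately before measurement. Triplicates, two independent runs averaged.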

[2] = Conversion rate (CR) assay with fluorescamine; format: physicochemical; design: key to CR: % = 100−100×filtrate/original fluorescence intensity
Protocol: For ATR FT–IR spectroscopy measurements, 200 µL of the respective 1 mg/mL PNF solution was lyophilized and the resulting powder used for measurement. All spectra were recorded on a Bruker Tensor 27 spectrometer with a diamond crystal as ATR element (PIKE MiracleTM, spectral resolution 2 cm^-1). Every sample was measured with 64 scans. Data were analyzed with OriginLab software and calculation of β–sheet content was conducted according to a previous report. TEM. For TEM measurements 5 µL of PNF fibrils (1 mg/mL) were placed on copper grids coated with carbon and formvar layer (300 mesh, Plano GmbH). After 10 min incubation time, the grids were staining with 4% uranyl acetate solution for 2.5 min and washed with water. Measurements were performed on a Jeol 1400 electron microscope with 120 kV acceleration voltage. CR Assay. For the determination of the amount of peptide monomer converting into nanostructures the amine reactive dye fluorescamine was used analogous to a previous reported protocol. Briefly, 100 µL of the preformed PNF solution was centrifuged in a Vivaspin 500 tube (3 kDa MWCO) to separate fibers from free peptide monomer (16200 x g, 4 °C, 45 min). The filtrate and 100 μL of the non-filtered PNF sample were lyophilized and dissolved in 30 μL DMSO. 10 μL of the filtrate and non-filtered DMSO samples were submitted in a black UV Star® 384 microliter well–plates (Greiner bio–one) and 3 μL of the fluorescamine solution (10 mg/mL, DMSO) was added to measure the fluorescence enhancement. After 20 min of incubation at RT, fluorescence was recorded on an Infinite® M1000 PRO microplate reader (Tecan) at λem = 470 nm upon excitation at λex = 365 nm with 10 nm bandwidths and multiple reads per well (3×3). Measurements were repeated in triplicates and averaged with standard deviation. All values were calculated as n-fold fluorescence enhancement (DMSO only as a reference was set to 1). The conversion rate CR was defined according to the equation Eq. (3).3 CR=100−100×fluorescenceintensityfiltrate/fluorescenceintensityoriginal[%]

[3] = zeta-potential of peptide, source data of Figure 2C
[4] = zeta-potential of the peptide assemblies, mean, Figure 3A source data
[5] = zeta potential of peptide assemblies
[6] = Fig. S7 panel B, conversion rate, fluorescamine assay
[7] = conversion rate, fluorescamine assay

| Substance | Zeta-Pot. [1] | Zeta-Potential / mV [1, 3] | Zeta-Potential / mV [1, 4] | Zeta-Pot. [1, 5] | CR / % [2, 6] | CR [2, 7] | other results |
| --- | --- | --- | --- | --- | --- | --- | --- |
| KIKIQIW | 12.5 | 11.255 mV | 12.5 mV | – | – | – | – |
| KIKIQII | – | 6.302 mV | 5.61 mV | 5.61 | – | – | – |
| KIKQII | – | -6.459 mV | -12.67 mV | -12.67 | 13% | 12.97 | – |
| CKIW | -3.71 | -2.772 mV | -3.71 mV | – | 48.3% | 48.26 | – |
| HHHHKAKAKAKAYYYY | – | 4.787 mV | 7.03 mV | 7.03 | – | – | – |
| CKIKIQIRGD | – | 7.157 mV | 7.16 mV | 7.157 | 91% | 91 | – |
| CQFQFQF | – | -25.37 mV | -24.8 mV | -24.8 | – | – | – |
| KFKFQFW | 6.49 | 8.995 mV | 6.49 mV | – | – | – | – |
| KFKFQFF | – | 6.903 mV | 6.9 mV | 6.903 | – | – | – |
| KIKIKIKI | – | 5.997 mV | 5.46 mV | 5.46 | – | – | – |
| CKIKQIINMWQ | – | 10.55 mV | 13.4 mV | 13.4 | 50% | 50 | – |
| RGDSGGGGGGKIKIQIC | – | 16.7 mV | 16.7 mV | 16.7 | 54.7% | 54.68 | – |
| RGDCKIKIQINM | – | 12.35 mV | 11.3 mV | 11.3 | – | – | – |
| HHHHKAKAKAKAWWWW | 17.4 | 12.25 mV | 17.4 mV | – | – | – | – |
| KIEIQINM | – | -6.992 mV | -0.35 mV | -0.35 | – | – | – |
| CKAKAQANM | -7.773 | -4.618 mV | -7.77 mV | – | 47.9% | 47.87 | Zeta pot. / mV [1]: -7.8 mV; CR / % ([2]; conversion of monomer to nanostructures, 3 kDa MWCO filtration, fluorescamine, ex 365 / em 470 nm, triplicate): 48% |
| CKFKQFF | 11.56 | 8.055 mV | 11.56 mV | – | 90% | 90.05 | – |
| KFKFQFNM | 13.9 | 18.4 mV | 13.9 mV | – | 94.8% | 94.77 | – |
| CKFKFQFW | 15.2 | 16.02 mV | 15.2 mV | – | 98.7% | 98.71 | – |
| CKFKQFFNMWQ | 8.563 | 10.915 mV | 8.56 mV | – | 98.7% | 98.72 | – |

| Substance | Zeta-Pot. [1] | Zeta-Potential / mV [1, 3] | Zeta-Potential / mV [1, 4] | Zeta-Pot. [1, 5] | CR / % [2, 6] | CR [2, 7] | other results |
| --- | --- | --- | --- | --- | --- | --- | --- |
| CKIKQIIRGD | – | 13.2 mV | 13.2 mV | 13.2 | – | – | – |
| KVKVQVV | – | -4.675 mV | -7.92 mV | -7.92 | – | – | – |
| CKAKAQA | – | -5.031 mV | -8.01 mV | -8.01 | 44% | 44 | – |
| CKFKQFFNM | 15.2 | 15.05 mV | 15.2 mV | – | – | – | – |
| HHHHKIKIKIKIWWWW [TM4] | – | – | – | – | – | – | Zeta Pot. / mV [1]: 14.5 mV; Zeta category ( +1 = if > 4 mV;-1 = if < -4 mV; 0 = -4mV to 4 mV) [1]: 1 (+1 = if > 4 mV); Zeta-pot. / mV ([1]; zeta potential of peptide, Fig S15 source data): 14.5 mV |
| KFKFQFN | 12.7 | 10.12 mV | 12.7 mV | – | – | – | Zeta pot. / mV [1]: 12.7 mV |
| KLKLKLQL | – | 8.477 mV | 8.39 mV | 8.39 | – | – | – |
| KIKIKIKIWW | – | 15.83 mV | 15.4 mV | 15.4 | 92% | 92 | – |
| RGDKIKIQIC | – | 17.27 mV | 16.5 mV | 16.5 | 80% | 80 | – |
| EIEIQINMWQ | -19.13 | -19.93 mV | -19.13 mV | – | 89.9% | 89.92 | – |
| CKIKIQINM | – | 14.3 mV | 16.83 mV | 16.83 | 75.5% | 75.5 | – |
| CSISIQINM | – | -21.18 mV | -19.4 mV | -19.4 | 86% | 86 | – |
| QCKIKIQINM | 11.37 | 11.15 mV | 11.37 mV | – | 89.7% | 89.7 | – |
| KFKQFFINMWQ | 7.99 | 10.28 mV | 7.99 mV | – | – | – | – |
| QCKFKQFFNMWQ | 9.587 | 11.04 mV | 9.59 mV | – | 98.7% | 98.72 | – |
| KLKLQLL | – | -3.1875 mV | -4.93 mV | -4.93 | – | – | – |
| CEFEFQFNMWQ | – | -24.5 mV | -34.23 mV | -34.23 | 98.6% | 98.63 | – |
| KIKIQIII | – | 19.13 mV | 19.8 mV | 19.8 | 87% | 87 | – |
| KAKAQANM | – | -2.065 mV | -2.62 mV | -2.62 | – | – | Zeta pot. / mV [1]: -2.6 mV |
| QCKFKQFF | 4.94 | 3.089 mV | 4.94 mV | – | – | – | – |

| Substance | Zeta-Pot. [1] | Zeta-Potential / mV [1, 3] | Zeta-Potential / mV [1, 4] | Zeta-Pot. [1, 5] | CR / % [2, 6] | CR [2, 7] | other results |
| --- | --- | --- | --- | --- | --- | --- | --- |
| KAKAKAQA | – | -5.297 mV | -9.01 mV | -9.01 | – | – | – |
| HHHHKIKIKIKIYYYY | – | 12.88 mV | 13.2 mV | 13.2 | – | – | – |
| ILKNLSRSRKIKIQIC | – | 19.25 mV | 18 mV | 18 | – | – | – |
| KIKIQIMWNQ | 2.96 | 4.42 mV | 2.96 mV | – | – | – | – |
| CKIKIQINMW | 18.3 | 18.43 mV | 18.3 mV | – | – | – | – |
| ILKNLSRSRKIKIQINMWQ | 19.2 | 17.9 mV | 19.2 mV | – | – | – | – |
| KIKIQINMWWQ | 11.8 | 13.17 mV | 11.8 mV | – | – | – | – |
| IKVAVKIKIQINM | 14.5 | 14.18 mV | 14.5 mV | – | – | – | – |
| MKIKIQINMWQ | – | 11.2 mV | 10.8 mV | 10.8 | – | – | – |
| KIKIQINMWWWQ | 9.45 | 9.633 mV | 9.45 mV | – | – | – | – |
| KVKVQVVV | – | 1.657 mV | 0.15 mV | 0.147 | – | – | – |
| KIKIQIMQWN | 9.44 | 8.94 mV | 9.44 mV | – | – | – | – |
| MKIKIQINM | – | 9.332 mV | 9.13 mV | 9.13 | – | – | – |
| KIKIKIQINMWQ | 13.1 | 13 mV | 13.1 mV | – | – | – | – |
| KIKIQIRGD | – | 4.47 mV | 6.43 mV | 6.43 | – | – | – |
| KIKIKIKIWWWW | – | 14.82 mV | 15.2 mV | 15.2 | – | – | – |
| KIKIQINMWQRGD | 1.69 | -0.495 mV | 1.69 mV | – | – | – | Zeta pot. / mV [1]: 1.7 mV |
| KFKFEFEF | – | -2.87 mV | -2.55 mV | -2.55 | – | – | – |
